In US9133182B2, “Selective androgen receptor modulators” (Radius Health, Inc., priority 2010, dated 2015):

Assays:
androgen receptor = androgen receptor (Rattus norvegicus (Rat), UniProt P15207); experiment: androgen receptor binding assay (fluorescence polarization, Invitrogen); conditions: AR-Fluormone complex, 4 h at room temperature
Experimental: The assay was performed as specified by the manufacturer (Invitrogen, Madison, Wis.). Briefly, 1 μl of 10 mM compound was added to 500 μl of AR screening buffer in a 1.5 ml eppendorf tube to make a 2×10^−5M stock. 10-fold serial dilutions of the test compounds were prepared ranging in concentration from 10^−5M to 10^−12M. Each dilution was added in triplicate to a black 384-microtiter plate. The test compounds will be diluted 2-fold in the final reaction. 2×AR-Fluormone™ complex was prepared with 2 nM Flourmone AL Green™ and 30 nM AR. 25 μl of 2×complex was aliquoted to each reaction well, such that the final reaction volume was 50 μl per well. Plate was sealed with a foil cover and incubated in the dark at room temperature for 4 h. Polarization values for each well were measured. The polarization values were plotted against the concentration of the test compound. […] As a control, a competition curve for R1881 (methyltrienolone) was performed for each assay.

[1] = system: immature, castrated rat (levator ani and bulba cavernous, LABC); experiment: In vivo rat Herschberger assay, LABC weight; design: key: no = no activity observed at highest dose tested.; yes = increased LABC weight relative to castrated vehicle control; conditions: once daily oral gavage for 4 days
Text: In Vivo Rat Model of Androgen and Anabolic Activity-Rat Herschberger Assay
The following is a typical procedure of the in vivo evaluation of the selective androgens of this invention. In particular, this assay looks primarily at the ability of the selective androgens of this invention to increase muscle size in an immature, castrated rat. In addition, androgenic effects are looked at primarily by weighing the prostate and seminal vesicles. Selective compounds will show a greater increase in the levator ani relative to the prostate and seminal vesicles when compared to testosterone treated, castrated animals or to intact animals that have not been treated. Immature Sprague Dawley male rats were obtained Charles River Laboratories (Stoneridge, N.Y.). All animals were maintained in a temperature and humidity controlled room with a 12 hr light: 12 hr dark cycle, with ad lib access to food (TD 291615, Teklad, Madison, Wis.) and water. Rats were anesthetized and orchidectomized (GDX) or sham surgery (SHAM) was performed. After a 7-day recovery period, the animals were randomized according to weight and assigned to treatment groups (n=5), SHAM, OVX+vehicle, OVX+Cpd treated. Testosterone propionate (TP 1 mg/kg in 5% DMSO/95% corn oil) was administered by once daily subcutaneous injections, while the compounds of the invention are dosed in vehicle (0.5% carboxymethylcellulose) was administered by once daily oral gavage. The rats were then dosed once daily for 4 days. All animals were euthanized via carbon dioxide inhalation 24 hs after the last dose. The prostate, seminal vesicle and levator ani and bulba cavernous (LABC) tissues were removed, weighed and recorded. An increase in mean LABC indicates anabolic activity for that particular compound with regard to oral dosing typically at a maximum tested dose of between 1 mg/kg and 30 mg/kg—see Table 1.

[2] = maximum tested dose between 1 mg/kg and 30 mg/kg, Table 1

androgen receptor, sequence (P15207 651-902): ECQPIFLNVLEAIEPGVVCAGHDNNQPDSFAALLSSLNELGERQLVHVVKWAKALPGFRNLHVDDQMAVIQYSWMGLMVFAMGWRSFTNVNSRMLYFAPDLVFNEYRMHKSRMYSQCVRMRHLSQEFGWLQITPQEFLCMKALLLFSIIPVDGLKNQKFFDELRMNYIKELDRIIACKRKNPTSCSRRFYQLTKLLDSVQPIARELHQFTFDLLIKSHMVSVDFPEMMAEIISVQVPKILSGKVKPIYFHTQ

| SMILES | IC50 (androgen receptor; Table 1) [nM] | Oral activity in Herscheberger assay on LABC weight [1, 2] | IC50 (androgen receptor; Table 2) [nM] | Oral activity in Herscheberger assay on LABC weight ([1]; Table 2) |
| --- | --- | --- | --- | --- |
| Cc1c(N2C(=O)OC[C@@H]2[C@H](O)C(F)(F)F)ccc(C#N)c1Cl [Example 11, 2-chloro-3-methyl-4-((R)-2-oxo-4-((S)-2,2,2-trifluoro-1-hydroxyethyl)oxazolidin-3-yl)benzonitrile] | 25 | yes |  |  |
| C[C@@H]1OC(=O)N(c2ccc(C#N)c(Cl)c2)[C@H]1[C@H](O)C(F)(F)F [Example 21, 2-Chloro-4-((4S,5S)-5-methyl-2-oxo-4-((S)-2,2,2-trifluoro-1-hydroxyethyl)oxazolidin-3-yl)benzonitrile] | 15 | yes |  |  |
| Cc1c(N2C(=O)CC[C@@H]2[C@H](O)C(F)(F)F)ccc(C#N)c1C(F)(F)F [Example 3, 3-methyl-4-((R)-2-oxo-5-((S)-2,2,2-trifluoro-1-hydroxyethyl)pyrrolidin-1-yl)-2-(trifluoromethyl)benzonitrile] | 11 | yes |  |  |
| N#Cc1ccc(N2C(=O)CC[C@@H]2[C@H](O)C(F)(F)F)cc1C(F)(F)F [Example 1, 4-((R)-2-oxo-5-((S)-2,2,2-trifluoro-1-hydroxyethyl)pyrrolidin-1-yl)-2-(trifluoromethyl)benzonitrile] | 14 | yes |  |  |
| Cc1c(N2C(=O)CC[C@@H]2[C@@H](O)C(F)(F)F)ccc(C#N)c1Cl [Example 30, 2-chloro-4-((R)-2-((R)-2,2,2-trifluoro-1-hydroxyethyl)-5-oxopyrrolidin-1-yl)-3-methylbenzonitrile] |  |  | 491 | no |
| O=C1CC[C@H]([C@H](O)C(F)(F)F)N1c1ccc(Cl)c(Cl)c1 [Example 27, (R)-1-(3,4-dichlorophenyl)-5-((S)-2,2,2-trifluoro-1-hydroxyethyl)pyrrolidin-2-one] |  |  | 62 | yes |
| CN1C[C@H]([C@@H](O)C(F)(F)F)N(c2ccc(C#N)c(C(F)(F)F)c2)C1=O [Example 26, 4-((R)-5-((R)-2,2,2-trifluoro-1-hydroxyethyl)-3-methyl-2-oxoimidazolidin-1-yl)-2-(trifluoromethyl)benzonitrile] | > 1000 | no |  |  |
| N#Cc1ccc(N2C(=O)CC[C@@H]2C(O)C(F)(F)F)cc1Cl (stereo partly drawn) [Example 31, 2-chloro-4-((R)-2-(2,2,2-trifluoro-1-hydroxyethyl)-5-oxopyrrolidin-1-yl)benzonitrile] |  |  | 46 | yes |
| N#Cc1ccc(N2C(=O)OC[C@H]2[C@H](O)C(F)(F)F)cc1Cl [Example 9, 2-chloro-4-((S)-2-oxo-4-((S)-2,2,2-trifluoro-1-hydroxyethyl)oxazolidin-3-yl)benzonitrile] | 45 | yes |  |  |
| N#Cc1ccc(N2C(=O)OC[C@@H]2[C@H](O)C(F)(F)F)cc1C(F)(F)F [Example 7, 4-((R)-2-oxo-4-((S)-2,2,2-trifluoro-1-hydroxyethyl)oxazolidin-3-yl)-2-(trifluoromethyl)benzonitrile] | 50 | yes |  |  |
| CN1C[C@H]([C@H](O)C(F)(F)F)N(c2ccc(C#N)c(C(F)(F)F)c2)C1=O [Example 25, 4-((R)-5-((S)-2,2,2-trifluoro-1-hydroxyethyl)-3-methyl-2-oxoimidazolidin-1-yl)-2-(trifluoromethyl)benzonitrile] | 10 | no |  |  |
| Cc1c(N2C(=O)OC[C@@H]2[C@H](O)C(F)(F)F)ccc(C#N)c1C(F)(F)F [Example 13, 3-methyl-4-((R)-2-oxo-4-((S)-2,2,2-trifluoro-1-hydroxyethyl)oxazolidin-3-yl)-2-(trifluoromethyl)benzonitrile] | 13 | yes |  |  |
